The numbers were not newly measured in patent publication US20230067378A1, “COMPOSITIONS AND METHODS FOR THE TREATMENT OF ESTROGEN-DEPENDENT DISORDERS” (ObsEva S.A., priority 2018, published 2023), which cites them from elsewhere.

SMILES strings stand for the structures.

For this series the following is noted: in vivo; cited from earlier work.

As a reminder, the half-life is the time needed for the level to fall by half in the phase considered. Consider `CONC(=O)Nc1ccc(-c2sc3c(c2CN(C)C)c(=O)n(-c2ccc(OC)nn2)c(=O)n3Cc2c(F)cccc2F)cc1` [relugolix, N-(4-(1-(2,6-difluorobenzyl)-5-((dimethylamino)methyl)-3-(6-methoxy-3-pyridazinyl)-2,4-dioxo-1,2,3,4-tetrahydrothieno[2,3-d]pyrimidin-6-yl)phenyl)-N′-methoxyurea], for which the half-life was 37 to 42 h. As for `COc1cccc(-c2c(C)n(Cc3c(F)cccc3C(F)(F)F)c(=O)n(C[C@H](NCCCC(=O)O)c3ccccc3)c2=O)c1F` [Elagolix, sodium 4-({(1R)-2-[5-(2-fluoro-3-methoxyphenyl)-3-{[2-fluoro-6-(trifluoromethyl)phenyl]methyl}-4-methyl-2,6-dioxo-3,6-dihydropyrimidin-1(2H)-yl]-1-phenylethyl}amino)butanoate], the half-life is 2 to 6 h.
